Data reported in patent publication US6355799B1, “Substituted benzene compounds, process for their preparation, and herbicidal and defoliant compositions containing them” (ISK Americas Incorporated, priority 1997, dated 2002).

Columns and labels:
Assay type in all cases: in vivo
[1] = system: velvetleaf (Abutilon theophrasti, ABUTH); experiment: Post-emerge test, greenhouse herbicide activity screening; settings: rating scale 0-100 (0 no damage, 100 complete death), 14 days after application
Procedure, shortened: (§1)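 Fourteen days after spraying, crop and weed injury was graded visually from 0, no effect, to 100, every plant dead. Test substances were dissolved in acetone and applied at 15–1000 g ai/ha with a flat-fan nozzle. Application was either pre-emergence, one day after sowing, or post-emergence at the 2–3 leaf stage.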

[2] = system: green foxtail (Setaria viridis, SETVI); experiment: as above; settings: rating scale 0-100 (0 no damage, 100 complete death), 14 days after application
Procedure, shortened: as §1

[3] = system: ivyleaf morningglory (Ipomoea hederacea, IPOHE); experiment: as above; settings: rating scale 0-100 (0 no damage, 100 complete death), 14 days after application
Procedure, shortened: as §1

[4] = system: common ragweed (Ambrosia artemisizfolia L., AMBEL); experiment: as above; settings: rating scale 0-100 (0 no damage, 100 complete death), 14 days after application
Procedure, shortened: as §1

[5] = system: redroot pigweed (Amaranthus retroflexus, AMARE); experiment: as above; settings: rating scale 0-100 (0 no damage, 100 complete death), 14 days after application
Procedure, shortened: as §1

[6] = system: johnsongrass (Sorghum halepense, SORHA); experiment: as above; settings: rating scale 0-100 (0 no damage, 100 complete death), 14 days after application
Procedure, shortened: as §1

[7] = system: large crabgrass (Digitaria sanguinalis, DIGSA); experiment: as above; settings: rating scale 0-100 (0 no damage, 100 complete death), 14 days after application
Procedure, shortened: as §1

[8] = system: lambsquarters (Chenopodium album, CHEAL); experiment: as above; settings: rating scale 0-100 (0 no damage, 100 complete death), 14 days after application
Procedure, shortened: as §1

[9] = system: sicklepod (Cassia obtusifolia, CASOB); experiment: as above; settings: rating scale 0-100 (0 no damage, 100 complete death), 14 days after application
Procedure, shortened: as §1

[10] = system: barnyardgrass (Echinochloa crus-galli, ECHCG); experiment: as above; settings: rating scale 0-100 (0 no damage, 100 complete death), 14 days after application
Procedure, shortened: as §1

[11] = system: upland rice (Oryza sp., var. Tebonnet, RICE); experiment: Post-emerge test, crop safety; settings: rating scale 0-100 (0 no damage, 100 complete death), 14 days after application
Procedure, shortened: (§2)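 Sandy loam pots; pre-emerge: sown 1 d pre-spray, surface-watered after, then bottom-watered. Post-emerge: sown 8–21 d before, 2–3 leaf stage, + 0.25% v/v NIS, bottom-watered. Acetone, 187 l/ha track spray, 15–1000 g ai/ha. 0–100 injury score, day 14.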

[12] = system: field corn (Zea mays L., var. Dekalb 535, CORN); experiment: Post-emerge test, crop safety; settings: rating scale 0-100 (0 no damage, 100 complete death), 14 days after application
Procedure, shortened: as §2

[13] = system: velvetleaf (Abutilon theophrasti, ABUTH); experiment: Pre-emerge test, greenhouse herbicide activity screening; settings: rating scale 0-100, 14 days after application
Procedure, shortened: as §2

[14] = system: green foxtail (Setaria viridis, SETVI); experiment: as above; settings: rating scale 0-100, 14 days after application
Procedure, shortened: as §2

[15] = system: ivyleaf morningglory (Ipomoea hederacea, IPOHE); experiment: as above; settings: rating scale 0-100, 14 days after application
Procedure, shortened: as §2

[16] = system: common ragweed (Ambrosia artemisizfolia L., AMBEL); experiment: as above; settings: rating scale 0-100, 14 days after application
Procedure, shortened: as §2

[17] = system: johnsongrass (Sorghum halepense, SORHA); experiment: as above; settings: rating scale 0-100, 14 days after application
Procedure, shortened: as §2

[18] = system: large crabgrass (Digitaria sanguinalis, DIGSA); experiment: as above; settings: rating scale 0-100, 14 days after application
Procedure, shortened: as §2

[19] = system: lambsquarters (Chenopodium album, CHEAL); experiment: as above; settings: rating scale 0-100, 14 days after application
Procedure, shortened: as §2

[20] = system: sicklepod (Cassia obtusifolia, CASOB); experiment: as above; settings: rating scale 0-100, 14 days after application
Procedure, shortened: as §2

[21] = system: barnyardgrass (Echinochloa crus-galli, ECHCG); experiment: as above; settings: rating scale 0-100, 14 days after application
Procedure, shortened: as §2

[22] = system: upland rice (Oryza sp., var. Tebonnet, RICE); experiment: Pre-emerge test, crop safety; settings: rating scale 0-100, 14 days after application
Procedure, shortened: (§3)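 Plants grown in 10 cm pots of sandy loam mix received acetone-dissolved compounds through a moving flat-fan nozzle. Doses ranged from 15 to 1000 g ai/ha. Pre-emerge pots were seeded one day earlier, post-emerge pots 8–21 days earlier. Fourteen days on, each pot was graded 0–100 for damage.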

[23] = system: field corn (Zea mays L., var. Dekalb 535, CORN); experiment: Pre-emerge test, crop safety; settings: rating scale 0-100, 14 days after application
Procedure, shortened: as §3

[24] = system: redroot pigweed (Amaranthus retroflexus, AMARE); experiment: Pre-emerge test, greenhouse herbicide activity screening; settings: rating scale 0-100, 14 days after application
Procedure, shortened: as §2

CCCOC(=O)C(Cl)Cc1c(OC)c(Cl)cc(F)c1-n1c(=O)cc(C(F)(F)F)n(C)c1=O (single isomer, unassigned) [14-7]
Post-emerge Herbicidal Activity, phytotoxicity rating ABUTH ([1]; Rate 63 g ai/ha): 50 | Post-emerge Herbicidal Activity, phytotoxicity rating ABUTH ([1]; Rate 250 g ai/ha): 100 | Post-emerge Herbicidal Activity, phytotoxicity rating SETVI ([2]; Rate 63 g ai/ha): 60 | Post-emerge Herbicidal Activity, phytotoxicity rating SETVI ([2]; Rate 250 g ai/ha): 85 | Post-emerge Herbicidal Activity, phytotoxicity rating IPOHE ([3]; Rate 63 g ai/ha): 20 | Post-emerge Herbicidal Activity, phytotoxicity rating IPOHE ([3]; Rate 250 g ai/ha): 60 | Post-emerge Herbicidal Activity, phytotoxicity rating AMBEL ([4]; Rate 63 g ai/ha): 50 | Post-emerge Herbicidal Activity, phytotoxicity rating AMBEL ([4]; Rate 250 g ai/ha): 90 | Post-emerge Herbicidal Activity, phytotoxicity rating AMARE ([5]; Rate 63 g ai/ha): 95 | Post-emerge Herbicidal Activity, phytotoxicity rating AMARE ([5]; Rate 250 g ai/ha): 100 | Post-emerge Herbicidal Activity, phytotoxicity rating SORHA ([6]; Rate 63 g ai/ha): 70 | Post-emerge Herbicidal Activity, phytotoxicity rating SORHA ([6]; Rate 250 g ai/ha): 90 | Post-emerge Herbicidal Activity, phytotoxicity rating DIGSA ([7]; Rate 63 g ai/ha): 80 | Post-emerge Herbicidal Activity, phytotoxicity rating DIGSA ([7]; Rate 250 g ai/ha): 100 | Post-emerge Herbicidal Activity, phytotoxicity rating CHEAL ([8]; Rate 63 g ai/ha): 90 | Post-emerge Herbicidal Activity, phytotoxicity rating CHEAL ([8]; Rate 250 g ai/ha): 99 | Post-emerge Herbicidal Activity, phytotoxicity rating CASOB ([9]; Rate 63 g ai/ha): 0 | Post-emerge Herbicidal Activity, phytotoxicity rating CASOB ([9]; Rate 250 g ai/ha): 20 | Post-emerge Herbicidal Activity, phytotoxicity rating ECHCG ([10]; Rate 63 g ai/ha): 100 | Post-emerge Herbicidal Activity, phytotoxicity rating ECHCG ([10]; Rate 250 g ai/ha): 100 | Post-emerge phytotoxicity rating RICE (crop damage) ([11]; Rate 63 g ai/ha): 10 | Post-emerge phytotoxicity rating RICE (crop damage) ([11]; Rate 250 g ai/ha): 25 | Post-emerge phytotoxicity rating CORN (crop damage) ([12]; Rate 63 g ai/ha): 95 | Post-emerge phytotoxicity rating CORN (crop damage) ([12]; Rate 250 g ai/ha): 100 | Pre-emerge herbicidal activity, phytotoxicity rating ABUTH ([13]; 63 g ai/ha): 100 | Pre-emerge herbicidal activity, phytotoxicity rating ABUTH ([13]; 250 g ai/ha): 100 | Pre-emerge herbicidal activity, phytotoxicity rating SETVI ([14]; 63 g ai/ha): 10 | Pre-emerge herbicidal activity, phytotoxicity rating SETVI ([14]; 250 g ai/ha): 90 | Pre-emerge herbicidal activity, phytotoxicity rating IPOHE ([15]; 63 g ai/ha): 0 | Pre-emerge herbicidal activity, phytotoxicity rating IPOHE ([15]; 250 g ai/ha): 0 | Pre-emerge herbicidal activity, phytotoxicity rating AMBEL ([16]; 63 g ai/ha): 0 | Pre-emerge herbicidal activity, phytotoxicity rating AMBEL ([16]; 250 g ai/ha): 50 | Pre-emerge herbicidal activity, phytotoxicity rating SORHA ([17]; 63 g ai/ha): 0 | Pre-emerge herbicidal activity, phytotoxicity rating SORHA ([17]; 250 g ai/ha): 70 | Pre-emerge herbicidal activity, phytotoxicity rating DIGSA ([18]; 63 g ai/ha): 90 | Pre-emerge herbicidal activity, phytotoxicity rating DIGSA ([18]; 250 g ai/ha): 100 | Pre-emerge herbicidal activity, phytotoxicity rating CHEAL ([19]; 63 g ai/ha): 40 | Pre-emerge herbicidal activity, phytotoxicity rating CHEAL ([19]; 250 g ai/ha): 85 | Pre-emerge herbicidal activity, phytotoxicity rating CASOB ([20]; 63 g ai/ha): 20 | Pre-emerge herbicidal activity, phytotoxicity rating CASOB ([20]; 250 g ai/ha): 0 | Pre-emerge herbicidal activity, phytotoxicity rating ECHCG ([21]; 63 g ai/ha): 0 | Pre-emerge herbicidal activity, phytotoxicity rating ECHCG ([21]; 250 g ai/ha): 75 | Pre-emerge phytotoxicity rating, crop damage RICE ([22]; 63 g ai/ha): 0 | Pre-emerge phytotoxicity rating, crop damage RICE ([22]; 250 g ai/ha): 40 | Pre-emerge phytotoxicity rating, crop damage CORN ([23]; 63 g ai/ha): 10 | Pre-emerge phytotoxicity rating, crop damage CORN ([23]; 250 g ai/ha): 90 | Pre-emerge herbicidal activity, phytotoxicity rating AMARE ([24]; 63 g ai/ha): 90 | Pre-emerge herbicidal activity, phytotoxicity rating AMARE ([24]; 250 g ai/ha): 100
